Among the test systems are K-562 leukemia; LOX IMVI melanoma; COLO 205 colon; HCT-15 colon; EKVX NSCLC; RXF 393 renal; RPMI-8226 leukemia; SF-268 CNS; MDA-MB-231 breast; HOP-92 NSCLC.
What all share (assay): NCI anticancer screen, dose series, 48 h

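Compound exposure: 48 hours, 5 concentrations, 96-well plates. Here, GI50 denotes the concentration required for 50% inhibition of growth. TGI is the concentration that stops growth completely.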

With `O=C(c1ccccc1)[C@H]1Nc2ccc(Cl)cc2[C@H]2c3ccccc3O[C@H]21`, the TGI worked out at 36.7 µM in the assay on K-562 leukemia; 37.2 µM in the assay with LOX IMVI melanoma; 37.4 µM in the assay with COLO 205 colon; 28.4 µM with HCT-15 colon; 28.6 µM with EKVX NSCLC; 22.4 µM with RXF 393 renal. For the same compound, the TGI is over 100 µM in the assay on RPMI-8226 leukemia and 33.9 µM with SF-268 CNS.

With `COc1ccc(-c2cc(=O)c3c(C)ccnc3[nH]2)cc1`, the TGI with K-562 leukemia is over 100 µM; in the assay on LOX IMVI melanoma, over 100 µM; in the assay with COLO 205 colon, 16.4 µM; with HCT-15 colon, over 100 µM; in the assay with EKVX NSCLC, over 100 µM; with MDA-MB-231 breast it was over 100 µM. Moreover, the TGI in the assay with RXF 393 renal came out at 41.6 µM; in the assay with RPMI-8226 leukemia it was 53 µM; in the assay on SF-268 CNS, 44.3 µM.

On to `O=C(c1ccccc1)c1nc2ccc(Cl)cc2cc1C(Br)Br`, for which the TGI was 3.55 µM in the assay on K-562 leukemia; 3.7 µM in the assay on LOX IMVI melanoma; 1.6 µM in the assay with COLO 205 colon; 0.879 µM in the assay on HCT-15 colon; 1.69 µM in the assay on EKVX NSCLC; 0.361 µM in the assay with RXF 393 renal. Besides, the TGI in the assay with RPMI-8226 leukemia stood at 1.18 µM; in the assay with SF-268 CNS, 0.972 µM.

Regarding `O=c1c2ccccc2c(=O)n2n1-c1cccc(c1)CSSCc1cccc-2c1`, the GI50 with K-562 leukemia, in the assay with COLO 205 colon, in the assay with HCT-15 colon, in the assay with EKVX NSCLC, in the assay with RPMI-8226 leukemia and with SF-268 CNS was over 100 µM throughout. Also, the TGI in the assay with K-562 leukemia, with LOX IMVI melanoma, in the assay with COLO 205 colon, with HCT-15 colon, in the assay on EKVX NSCLC and in the assay with RXF 393 renal was over 100 µM in each case. Besides, the TGI with RPMI-8226 leukemia and in the assay with SF-268 CNS was over 100 µM each time.

For `CC1=NC2(C(=O)O)C3(C(=O)O)N=C(C)OC3(C(F)(F)F)C2(C(F)(F)F)O1` (stereo not given), the TGI with K-562 leukemia, in the assay on HOP-92 NSCLC, with LOX IMVI melanoma, in the assay on COLO 205 colon, in the assay on EKVX NSCLC and with RXF 393 renal was over 100 µM in each case. Also, the TGI with SF-268 CNS was over 100 µM.

For the compound `O=C1c2ccccc2C(=O)N1C/C=N/NS(=O)(=O)c1cccc([N+](=O)[O-])c1`, the TGI with K-562 leukemia, with LOX IMVI melanoma, in the assay with COLO 205 colon, in the assay with HCT-15 colon, with EKVX NSCLC and with RXF 393 renal was over 100 µM throughout. Moreover, the TGI with RPMI-8226 leukemia and in the assay with SF-268 CNS was over 100 µM in each case.

As for `CCOc1ccc2c(c1)[n+]([O-])c(-c1ccccc1)c(N)[n+]2[O-]`, the TGI in the assay with K-562 leukemia is over 100 µM; in the assay on LOX IMVI melanoma it was over 100 µM; in the assay on COLO 205 colon it was 81.8 µM; in the assay on HCT-15 colon, over 100 µM; with EKVX NSCLC, over 100 µM; with RPMI-8226 leukemia, over 100 µM. This compound displayed a TGI in the assay on SF-268 CNS of over 100 µM.

`CCOP(=O)(OCC)C(C(=O)OC)C(=O)C(=O)Nc1cccc([N+](=O)[O-])c1` (stereo not given): the TGI in the assay on K-562 leukemia, with LOX IMVI melanoma, with COLO 205 colon, with HCT-15 colon, in the assay on EKVX NSCLC and with RXF 393 renal was over 100 µM each time. Also, the TGI in the assay with SF-268 CNS is over 100 µM.

Consider `CN(N=O)C(=O)NC(CCCCNC(=O)OCc1ccccc1)C(=O)OCc1ccccc1` (stereo not given), for which the TGI in the assay on K-562 leukemia was over 100 µM; in the assay with HOP-92 NSCLC, 54.2 µM; in the assay with LOX IMVI melanoma, 37.1 µM; in the assay with COLO 205 colon, 47.2 µM; with HCT-15 colon, over 100 µM; in the assay on EKVX NSCLC it was over 100 µM. Besides, the TGI turned out to be 61.8 µM in the assay on RXF 393 renal and 95.4 µM with RPMI-8226 leukemia.

Consider `O=C(O)c1ccccc1NS(=O)(=O)c1ccc(Cl)cc1`, for which the TGI in the assay on K-562 leukemia was over 100 µM; with HOP-92 NSCLC, 81.5 µM; in the assay on LOX IMVI melanoma it was over 100 µM; with COLO 205 colon it was over 100 µM; in the assay on HCT-15 colon, over 100 µM; in the assay with EKVX NSCLC it was over 100 µM. The TGI in the assay with RXF 393 renal, in the assay on RPMI-8226 leukemia and with SF-268 CNS was over 100 µM each time.

Regarding `COc1ccc2c(c1)c(-c1ccc(-c3cn(C)c4ccc(OC)cc34)s1)cn2C`, the GI50 with K-562 leukemia, in the assay with LOX IMVI melanoma, in the assay with COLO 205 colon, in the assay with HCT-15 colon, in the assay on EKVX NSCLC and with MDA-MB-231 breast was over 100 µM in each case. For the same compound, the GI50 in the assay with RXF 393 renal, in the assay with RPMI-8226 leukemia and with SF-268 CNS was over 100 µM in each case. Moreover, the TGI with K-562 leukemia, in the assay with LOX IMVI melanoma, with COLO 205 colon, with HCT-15 colon, in the assay on EKVX NSCLC and with MDA-MB-231 breast was over 100 µM each time. The TGI with RXF 393 renal, in the assay on RPMI-8226 leukemia and in the assay with SF-268 CNS was over 100 µM each time.

Regarding `Cc1cc(C)c2c(c1)CSCc1cc(C)cc(C)c1-2`, the TGI in the assay on K-562 leukemia was over 100 µM; in the assay on LOX IMVI melanoma it was 33.2 µM; with COLO 205 colon it was 73.3 µM; with HCT-15 colon, over 100 µM; in the assay on EKVX NSCLC, 81.9 µM; in the assay with RXF 393 renal, 65.3 µM. Also, the results for the TGI in the assay with RPMI-8226 leukemia and in the assay with SF-268 CNS were 56.4 µM and over 100 µM, respectively.

Take `Cc1cccc(-c2nc(=S)[nH][nH]2)c1`: the TGI with K-562 leukemia, with HOP-92 NSCLC, with COLO 205 colon, with HCT-15 colon, with EKVX NSCLC and with RPMI-8226 leukemia was over 100 µM each time. Further, the TGI in the assay on SF-268 CNS was over 100 µM.

For the compound `O=C1C2C3SC(c4cc5ccccc5cc43)C2C(=O)N1c1ccccc1` (stereo not given), the TGI in the assay with K-562 leukemia, in the assay on HOP-92 NSCLC, in the assay with LOX IMVI melanoma, with COLO 205 colon, with HCT-15 colon and with EKVX NSCLC was over 100 µM each time. Moreover, the TGI is 94.3 µM in the assay on RXF 393 renal, over 100 µM in the assay on RPMI-8226 leukemia and over 100 µM with SF-268 CNS.

`CCN(CC)CC(C(=O)Nc1c(C)cccc1C)/C(C)=N\NC(=S)NN` (stereo not given): the TGI in the assay on K-562 leukemia, in the assay on HOP-92 NSCLC, with LOX IMVI melanoma, with COLO 205 colon, with EKVX NSCLC and with RXF 393 renal was over 100 µM in each case. For the same compound, the TGI with RPMI-8226 leukemia and in the assay on SF-268 CNS was over 100 µM each time.

These data come from PubChem BioAssay (NCI).
